Test results reported in the NIST ThermoML archive (doi:10.1016/j.jct.2013.05.031).

Details: for surface tension liquid-gas: Capillary rise; for viscosity / mass density: 101.33 kPa, Liquid; for viscosity: Capillary tube (Ostwald / Ubbelohde) method; for mass density: Pycnometric method

CCCCCCCCCCCC[N+](CC)(CC)CC.O=S(=O)([N-]S(=O)(=O)C(F)(F)F)C(F)(F)F
Details	mass density [kg/m3]	surface tension liquid-gas [mN/m]	viscosity [mPa·s]
298 K	1191.1	31.8	311.8
303 K	1187.1	31.3	227.6
308 K	1183.1	30.9	167.7
313 K	1179.4	30.3	137.8
318 K	1175.7	29.9	98.82
323 K	1171.6	29.5	78.71
328 K	1167.9	29.1	62.52
333 K	1164.2	28.5	49.82
338 K	1160.7	28.2	41.48
343 K	1157.2	27.7	34.69
348 K	1153.3	27.2	29.44
353 K	1149.5	26.8	25.13
358 K	1145.5	26.4	21.3
363 K	1141.4	26	18.31
368 K	1137.6	25.5	16.51
373 K	1133.7	25.2	14.2

CCCCCC[N+](CC)(CC)CC.O=S(=O)([N-]S(=O)(=O)C(F)(F)F)C(F)(F)F [triethylhexylammonium bis((trifluoromethyl)sulfonyl)imide]
Details	mass density [kg/m3]	surface tension liquid-gas [mN/m]	viscosity [mPa·s]
298 K	1291.4	34.1	186.6
303 K	1287.4	33.7	137.9
308 K	1283.4	33.3	105.1
313 K	1279.5	32.9	81.64
318 K	1275.2	32.5	65.32
323 K	1271.3	32.1	52.03
328 K	1267.1	31.7	42.34
333 K	1262.5	31.3	35.41
338 K	1258.5	30.9	28.94
343 K	1254.5	30.5	24.77
348 K	1251.3	30.1	20.96
353 K	1247.3	29.7	18.03
358 K	1243.3	29.3	15.83
363 K	1238.4	28.9	13.9
368 K	1234.9	28.5	12.25
373 K	1231.1	28.2	10.86
